Legend:
Test in all cases: concentration in plasma after dosing
rat [1] = conditions: dosed: Propamocarb hydrochloride, 1.0000000000 mg/kg, iv, male, Sprague-Dawley
rat [2] = conditions: male, Sprague-Dawley
rat [3] = conditions: dosed: Propamocarb hydrochloride, 1.0000000000 mg/kg, iv, male, Sprague-Dawley; remark: listed apart in the source
rat [4] = conditions: dosed: Propamocarb hydrochloride, 5.0000000000 mg/kg, oral, male, Sprague-Dawley
rat [5] = conditions: dosed: Propamocarb hydrochloride, 5.0000000000 mg/kg, oral, male, Sprague-Dawley; remark: listed apart in the source
rat [6] = conditions: dosed: Propamocarb hydrochloride, 5.0000000000 mg/kg, oral, male, Sprague-Dawley; remark: listed apart in the source
rat [7] = conditions: dosed: Resmethrin, 0.8000000000 mg/kg, iv, male, Sprague-Dawley
rat [8] = conditions: dosed: Resmethrin, 4.0000000000 mg/kg, oral, male, Sprague-Dawley
rat [9] = conditions: dosed: Resmethrin, 4.0000000000 mg/kg, oral, male, Sprague-Dawley; remark: listed apart in the source
rat [10] = conditions: dosed: Resmethrin, 0.8000000000 mg/kg, iv, male, Sprague-Dawley; remark: listed apart in the source
rat [11] = conditions: dosed: Resmethrin, 4.0000000000 mg/kg, oral, male, Sprague-Dawley; remark: listed apart in the source
rat [12] = conditions: dosed: S-Bioallethrin, 0.8000000000 mg/kg, iv, male, Sprague-Dawley
rat [13] = conditions: dosed: S-Bioallethrin, 0.8000000000 mg/kg, iv, male, Sprague-Dawley; remark: listed apart in the source
rat [14] = conditions: dosed: S-Bioallethrin, 4.0000000000 mg/kg, oral, male, Sprague-Dawley
rat [15] = conditions: dosed: S-Bioallethrin, 0.8000000000 mg/kg, iv, male, Sprague-Dawley; remark: listed apart in the source
rat [16] = conditions: dosed: Simazine, 0.4000000000 mg/kg, iv, male, Sprague-Dawley
rat [17] = conditions: dosed: Simazine, 2.0000000000 mg/kg, oral, male, Sprague-Dawley
rat [18] = conditions: dosed: Simazine, 0.4000000000 mg/kg, iv, male, Sprague-Dawley; remark: listed apart in the source
rat [19] = conditions: dosed: Simazine, 2.0000000000 mg/kg, oral, male, Sprague-Dawley; remark: listed apart in the source
rat [20] = conditions: dosed: Simazine, 2.0000000000 mg/kg, oral, male, Sprague-Dawley; remark: listed apart in the source
rat [21] = conditions: dosed: Simazine, 0.4000000000 mg/kg, iv, male, Sprague-Dawley; remark: listed apart in the source
rat [22] = conditions: dosed: Triclosan, 1.0000000000 mg/kg, iv, male, Sprague-Dawley
rat [23] = conditions: dosed: Triclosan, 1.0000000000 mg/kg, iv, male, Sprague-Dawley; remark: listed apart in the source
rat [24] = conditions: dosed: Triclosan, 1.0000000000 mg/kg, iv, male, Sprague-Dawley; remark: listed apart in the source
rat [25] = conditions: dosed: Triclosan, 1.0000000000 mg/kg, iv, male, Sprague-Dawley; remark: listed apart in the source
rat [26] = conditions: dosed: Triclosan, 1.0000000000 mg/kg, iv, male, Sprague-Dawley; remark: listed apart in the source

CCCOC(=O)NCCCN(C)C.Cl [Propamocarb hydrochloride]
concentration in plasma [ng/mL]
Conditions	rat [1]	rat [3]	rat [4]	rat [5]	rat [6]
0.25 h	69.3	62.1	2.1	1.1	3.5
0.5 h	35.3	25.5	1.5	0.7	1.7
1 h	11	8.7	0.43	0.1	0.4
2 h	1.7	0.5	–	–	–
5 min	108	103	–	–	–

concentration in plasma [ng/mL], rat [2], dosed: Propamocarb hydrochloride
Conditions	0.25 h	0.5 h	1 h	2 h	5 min
1.0000000000 mg/kg, iv	57.8	26.2	9.6	1	134
5.0000000000 mg/kg, oral	8.1	4.9	1.6	–	–

CC(C)=CC1C(C(=O)OCc2coc(Cc3ccccc3)c2)C1(C)C (configuration not stated) [Resmethrin]
concentration in plasma [ng/mL]
Conditions	0.25 h	0.5 h	1 h	2 h	4 h	5 min	8 h	10 min	12 h
rat [7]	–	9.1	4.1	1	–	52.7	–	25	–
rat [8]	13.4	11.8	44.1	12.4	5.6	–	4	–	–
rat [9]	17.4	15.8	17.7	10.6	4.2	–	4.6	–	–
rat [10]	–	12.1	0.7	5.6	–	52.5	–	20.6	–
rat [11]	7	10.7	39	12.8	2.3	–	4.7	–	1.8

concentration in plasma [ng/mL], rat [2], dosed: Resmethrin
Conditions	0.25 h	0.5 h	1 h	2 h	4 h	5 min	8 h	10 min
0.8000000000 mg/kg, iv	–	13.9	1.6	8.1	–	72.9	–	30.4
4.0000000000 mg/kg, oral	12.6	37.2	32.8	13.5	13.7	–	6.1	–

C=CCC1=C(C)[C@@H](OC(=O)[C@@H]2[C@@H](C=C(C)C)C2(C)C)CC1=O [S-Bioallethrin]
concentration in plasma [ng/mL], rat [2], dosed: S-Bioallethrin
Conditions	0.5 h	1 h	2 h	4 h	5 min
0.8000000000 mg/kg, iv	2.7	3	3.4	1.6	19.2
4.0000000000 mg/kg, oral	1.6	6	1.2	–	–

concentration in plasma [ng/mL]
Conditions	0.25 h	0.5 h	1 h	2 h	4 h	5 min	8 h	10 min
rat [12]	–	24.5	5.2	6.9	2.9	–	1.5	76.7
rat [13]	–	13.1	–	6.7	1.9	60.4	–	43.5
rat [14]	2.5	2.2	4.9	–	–	–	–	–
rat [15]	–	31.3	11	2.5	1.6	–	–	30.2

CCNc1nc(Cl)nc(NCC)n1 [Simazine]
concentration in plasma [ng/mL], rat [2], dosed: Simazine
Conditions	0.25 h	0.5 h	1 h	5 min	10 min
0.4000000000 mg/kg, iv	–	43	3.7	91.6	101
2.0000000000 mg/kg, oral	6.9	2.4	–	–	–

concentration in plasma [ng/mL]
Conditions	0.25 h	0.5 h	1 h	2 h	4 h	5 min	10 min
rat [16]	–	46.6	9.7	1.1	–	52	148
rat [17]	6.9	5	1	4.6	1	–	–
rat [18]	–	34.8	5.3	–	–	127	95.5
rat [19]	68.5	23.2	5	1.2	–	–	–
rat [20]	10.5	3.7	1.3	2.6	1.5	–	–
rat [21]	–	23.2	4.5	–	–	63.7	60.4

Oc1cc(Cl)ccc1Oc1ccc(Cl)cc1Cl [Triclosan]
rat [2], dosed: Triclosan, 1.0000000000 mg/kg, iv
Conditions	concentration in plasma [ng/mL]
0.5 h	39.6
5 min	474
10 min	211

concentration in plasma [ng/mL]
Conditions	0.5 h	1 h	2 h	5 min	10 min	72 h
rat [22]	24.8	6.4	–	270	129	6.2
rat [23]	102	24.9	–	469	374	–
rat [24]	23.9	6.6	–	72.7	36.7	–
rat [25]	200	–	–	903	367	–
rat [26]	5.7	10.4	5	1	2.1	2.9
